Values of other authors, collected in patent US5013557A, “Taste masking compositions comprising spray dried microcapsules containing sucralfate and methods for preparing same” (Warner-Lambert Company, priority 1989, dated 1991).

What was measured:
[1] = pH values below about 3.5
[2] = sulfated disaccharide
[3] = system: ulcerated mucosa
[4] = system: mucosa
[5] = system: peptic ulcers; details: in vivo
[6] = system: pepsin; details: gel-like mass at ulcer site
[7] = system: EGF; details: in vivo

Substance: alpha-D-glucopyranoside, beta-D-fructofuranosyl-, octakis-(hydrogen sulfate), aluminum complex [sucralfate]
- Coagulation / gel formation [1]: coagulates to form a gel-like mass
- Absorption from the gastrointestinal tract [2]: not absorbed from the gastrointestinal tract
- Affinity for ulcerated mucosa versus non-ulcerated mucosa [3]: greater affinity for ulcerated mucosa than for non-ulcerated mucosa
- Morphological and functional changes in the mucosa [4]: mucus release, changes in ion transport and increased release and synthesis of prostaglandins
- Healing of peptic ulcers [5]: accelerates the healing of peptic ulcers
- Effect of protein barrier on bile salts and pepsin [6]: adsorbs bile salts and inhibits the potential ulcerogenic properties of pepsin
- Effect of barrier on back diffusion of gastric acid (across the sucralfate protein barrier): blocks back diffusion of gastric acid
- Effect of barrier on diffusion of hydrogen ions (protein barrier bound to ulcer site): blocks diffusion of hydrogen ions
- EGF remaining in the stomach [7]: enable EGF to remain in the stomach at a high concentration
